Molecules are shown by their SMILES.

Drawing on patent publication US20100160369A1, “S1P1 Agonists and Methods of Making And Using” (EXELIXIS, INC., priority 2008, published 2010), this text covers EC50 for 19 compounds.

Test [1] addresses T1, S1P1 (Homo sapiens, UniProt P21453). Put plainly: Tango β-arrestin Recruitment Assay in HEK293 cells (Assay 2a). Also noted: linker with TEV protease (N1a) cleavage site (C); host or cells: HEK293, transiently transfected. The class given is cell-based. The conditions noted are these: Tango β-arrestin Recruitment Assay, read-out: Assay 2a EC50. In outline:
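HEK293 cells transiently expressing S1P1 (TEV-cleavable tTA fusion) with β-arrestin2–TEV; compounds up to 10 μM, 10-point 3-fold, 1% DMSO, 30 min then 16–18 h at 37 °C. Luciferase luminescence normalised to 5 μM S1P as 100% and DMSO as background; EC50 from percent-activity curves.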
Target sequence in this assay (P21453 whole entry, the tested form may be a part): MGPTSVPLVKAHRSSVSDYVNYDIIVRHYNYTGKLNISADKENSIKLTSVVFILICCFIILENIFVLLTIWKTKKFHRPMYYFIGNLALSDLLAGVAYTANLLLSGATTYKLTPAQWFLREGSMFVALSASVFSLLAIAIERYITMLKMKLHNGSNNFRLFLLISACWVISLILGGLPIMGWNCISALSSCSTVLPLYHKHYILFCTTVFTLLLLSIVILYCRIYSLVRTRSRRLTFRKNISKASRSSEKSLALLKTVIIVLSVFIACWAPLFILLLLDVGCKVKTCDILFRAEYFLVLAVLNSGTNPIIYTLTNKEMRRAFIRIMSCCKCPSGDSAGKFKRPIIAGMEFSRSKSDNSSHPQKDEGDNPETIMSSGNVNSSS
Target sequence in this assay (P32121 whole entry partner, the tested form may be a part): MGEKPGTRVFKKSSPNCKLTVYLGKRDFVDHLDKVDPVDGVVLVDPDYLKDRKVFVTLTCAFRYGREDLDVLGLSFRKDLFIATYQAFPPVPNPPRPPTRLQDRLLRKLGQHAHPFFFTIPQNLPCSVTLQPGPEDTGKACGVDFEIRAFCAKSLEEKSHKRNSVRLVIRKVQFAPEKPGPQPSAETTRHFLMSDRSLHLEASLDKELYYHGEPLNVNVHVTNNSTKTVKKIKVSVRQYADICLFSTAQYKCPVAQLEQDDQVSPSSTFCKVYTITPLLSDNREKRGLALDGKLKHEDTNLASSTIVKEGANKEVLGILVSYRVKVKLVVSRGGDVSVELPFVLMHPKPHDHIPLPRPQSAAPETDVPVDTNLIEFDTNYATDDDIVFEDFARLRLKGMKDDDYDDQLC

For test [2], the target named is T1, S1P1. Put plainly: DELFIA GTP-Eu Binding Assay (Assay 3b). The format is biochemical. Details: purchased Lonza; host or cells: CHO cell membranes. How it is done: The DELFIA GTP-Eu binding assay (PerkinElmer) is a time-resolved fluorometric assay based on GDP-GTP exchange. CHO cell membranes (Lonza) expressing human S1P1 were incubated in 96-well filter plates (Pall, East Hills, N.Y.) in a final volume of 100 μL/well buffer containing 40 μg/mL membrane, 50 mM HEPES, 2 μM GDP, 10 mM MgCl2, 100 mM NaCl, 500 μg/mL Saponin and test compound. Test compounds were tested at maximum concentrations of 10 μM. Compounds were diluted (10 concentration points, 3-fold each) and added to the assay plate at a 1% final DMSO concentration. For each compound, there were duplicate assay plates and each assay plate had duplicate wells per concentration point. The plates were incubated for 30 min at room temperature on a plate shaker at low speed. GTP-Eu was added to each well (10 μL, 10 nM final concentration) and the plate was incubated for an additional 30 min with slow shaking The wells were washed with ice cold GTP washing buffer (3×150 μL) using a vacuum manifold and the assay plates read in an EnVision plate reader (PerkinElmer) at an excitation wavelength of 340 nm and an emission wavelength of 615 nm. To determine agonist activity, percent activity was calculated as [(test compound−background)/(positive control−background)*100], where background is the fluorescence in absence of compound and the positive control is the fluorescence from membranes incubated with 1 μM S1P (Avanti). The percent activities were plotted against compound concentration to determine IC50 or EC50 using XLFit (IDBS).
(§1) Assay 1 is the CNG cAMP Assay as described in Biological Example 1. Assay 2a and 2b are the Tango™ β-arrestin Recruitment Assay in HEK293 and U2OS cells, respectively, as described in Biological Example 2. Assay 3a is the hS1P1R GTPγS Binding Assay as described in Biological Example 3. Assay 3b is the GTP-Eu Binding Assay as described in Biological Example 3. EC50's were measured unless otherwise noted. […] In the table, “nt” means the Compound was not tested and “no” means the compound was tested but had no measurable activity under the assay conditions employed.
Target sequence in this assay (P21453 whole entry, the tested form may be a part): as the sequence (P21453 whole entry, the tested form may be a part) above

The target in test [3] is T1, S1P1. The test is described as follows: CNG cAMP Assay (Assay 1). The format is cell-based. Details: host or cells: HEK293 cells expressing the CNG channel. The conditions noted are these: read-out: Assay 1 EC50. In outline:
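HEK293 cells expressing CNG channel and S1P1, membrane-potential dye loaded; compounds (top 10 μM, 10-point 3-fold, 1.8% DMSO) added with 25 μM Ro 20-1724, 500 nM NECA and 10 nM S1P for 90 min. T90/T0 fluorescence (Ex 350/Em 590 nm) normalised to NECA-alone vs DMSO; EC50 fitted.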
Target sequence in this assay (P21453 whole entry, the tested form may be a part): as above

Test [4] has as its target T1, S1P1. Put plainly: Tango β-arrestin Recruitment Assay in U2OS cells (Assay 2b). The class given is cell-based. Details: linker with TEV protease (N1a) cleavage site (C). As to conditions: Tango β-arrestin Recruitment Assay, read-out: Assay 2b EC50. In outline: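 U2OS cells expressing S1P1 and reporter, serum-starved 48 h, treated with compound (10-point 3-fold series, top 1 μM, 1% DMSO) overnight at 37 °C; β-lactamase substrate added 2 h at room temperature. F460/F530 ratio normalised to 1 μM S1P (100%) and DMSO; EC50 from concentration-response.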
On the technique in general: Activated receptors often draw arrestin, which recruitment assays turn into a signal.
Target sequence in this assay (P21453 whole entry, the tested form may be a part): as above
Target sequence in this assay (P32121 whole entry partner, the tested form may be a part): as the sequence (P32121 whole entry partner, the tested form may be a part) above

The target in test [5] is T2, hS1P1R (hEdg1) (Homo sapiens, UniProt P21453).
T2 construct: purchased Lonza
T2 sequence (P21453 whole entry): as the sequence (P21453 whole entry, the tested form may be a part) above
The test is described as follows: hS1P1R GTPγS Binding Assay (Assay 3a). The class given is biochemical. As to the method:
The hS1P1R GTPγS binding assay was carried out at room temperature in 96 well non-binding surface assay plates. The reaction in each well contained 4 μg hS1P1R (hEdg1) membrane protein (Lonza), 30 μM GDP, 0.1 nM [^35S]GTPγS, 0.25% fatty acid free BSA, and serially diluted hS1P1R agonist compound in 200 μL assay buffer (25 mM Tris-HCl PH 7.9, 100 mM NaCl, 3 mM MgCl2, and 0.2 mM EGTA). After one hour of incubation, 0.9 mg of WGA (Wheat Germ Agglutinin) SPA beads in 50 μL of assay buffer was added to each well. The SPA beads were spun down after an additional one hour incubation. The radioactivity of the bound GTPγS was counted by reading the assay plate using a MicroBeta.
as §1

Where [6] appears, read: relative EC50 was measured (footnote 1), read-out: Assay 3b Relative EC50.

Usually EC50 stands for the concentration at which the effect is half-maximal. In the case of `O=C(O)CCc1ccc(-c2noc(-c3cn4cc(C(F)(F)F)cc(Cl)c4n3)n2)c(Cl)c1` [Entry 1], the figures for the EC50 in test [1], in test [2] (read-out: Assay 3b EC50) and in test [3] were at most 100 nM, 500 to 1000 nM and at most 100 nM, respectively.
As to `Cc1cc(CCC(=O)O)ccc1-c1noc(-c2cn3cc(C(F)(F)F)cc(Cl)c3n2)n1` [Entry 2], the 50% effective concentration (EC50) was at most 100 nM in test [1], 100 to 500 nM in test [2] (read-out: Assay 3b EC50) and at most 100 nM in test [3].
For `O=C(O)CCc1ccc(-c2noc(-c3cn4cc(C(F)(F)F)cc(Cl)c4n3)n2)cc1F` [Entry 6], the EC50 was at most 100 nM in test [1], 500 to 1000 nM in test [2] (setting [6]) and at most 100 nM in test [3].
Take `O=C(O)CCc1cc(F)c(-c2noc(-c3cn4cc(C(F)(F)F)cc(Cl)c4n3)n2)c(F)c1` [Entry 10]: the EC50 in test [1] is 100 to 500 nM; in test [2] (setting [6]) it was 1000 to 5000 nM; in test [3], at most 100 nM.
As to `COc1cc(Cl)c2nc(-c3nc(-c4cc(F)c(CCC(=O)O)cc4Cl)no3)cn2c1` [Entry 61], the EC50 in test [1] is at most 100 nM; in test [2] (read-out: Assay 3b EC50), 100 to 500 nM; in test [3], at most 100 nM.
Consider `O=C(O)/C=C/c1cc(Cl)c(-c2noc(-c3cn4cc(C(F)(F)F)cc(Cl)c4n3)n2)cc1F` [Entry 63], for which the EC50 in test [1] is at most 100 nM; in test [2] (read-out: Assay 3b EC50), 100 to 500 nM; in test [3] it was at most 100 nM.
As to `Cc1cc(C2CC2C(=O)O)ccc1-c1noc(-c2cn3cc(C(F)(F)F)cc(Cl)c3n2)n1` (stereo not drawn) [Entry 69], the results for the EC50 in test [1], in test [2] (setting [6]) and in test [3] were 100 to 500 nM, 1000 to 5000 nM and at most 100 nM, respectively.
The like results for `O=C(O)C1CC1c1ccc(-c2noc(-c3cn4cc(C(F)(F)F)cc(Cl)c4n3)n2)c(Cl)c1` (stereo not drawn) [Example 42, 2-(3-chloro-4-{5-[8-chloro-6-(trifluoromethyl)imidazo[1,2-a]pyridin-2-yl]-1,2,4-oxadiazol-3-yl}phenyl)cyclopropanecarboxylic acid] were, in that order, 100 to 500 nM, 1000 to 5000 nM and at most 100 nM.
Regarding `O=C(O)C1CC1c1cc(Cl)c(-c2noc(-c3cn4cc(C(F)(F)F)cc(Cl)c4n3)n2)cc1F` (stereo not drawn) [Example 85, 2-(5-chloro-4-{5-[8-chloro-6-(trifluoromethyl)imidazo[1,2-a]pyridin-2-yl]-1,2,4-oxadiazol-3-yl}-2-fluorophenyl)cyclopropanecarboxylic acid], the EC50 was at most 100 nM in test [1], 100 to 500 nM in test [2] (read-out: Assay 3b EC50) and at most 100 nM in test [3].
With `CS(=O)(=O)Nc1ccc(-c2noc(-c3cn4cc(C(F)(F)F)cc(Cl)c4n3)n2)c(Cl)c1` [Example 94, N-(3-chloro-4-{5-[8-chloro-6-(trifluoromethyl)imidazo[1,2-a]pyridin-2-yl]-1,2,4-oxadiazol-3-yl}phenyl)methanesulfonamide], the results for the EC50 in test [1], in test [2] (read-out: Assay 3b EC50) and in test [3] were 100 to 500 nM, 500 to 1000 nM and at most 100 nM, respectively.
For `O=C(O)CCc1ccc(-c2nnc(-c3cn4cc(C(F)(F)F)cc(Cl)c4n3)o2)c(Cl)c1` [Example 99], the EC50 in test [1] was 100 to 500 nM; in test [2] (setting [6]), 1000 to 5000 nM; in test [3], at most 100 nM.
On to `O=C(O)C1CN(Cc2ccc(-c3noc(-c4cn5cc(C(F)(F)F)cc(Cl)c5n4)n3)c(Cl)c2)C1` [Example 124, 1-[(3-chloro-4-{5-[8-chloro-6-(trifluoromethyl)imidazo[1,2-a]pyridin-2-yl]-1,2,4-oxadiazol-3-yl}phenyl)methyl]azetidine-3-carboxylic acid], for which the EC50 fell in the range of 100 to 500 nM in test [1], 1000 to 5000 nM in test [2] (setting [6]) and 100 to 500 nM in test [3].
For `O=C(O)CCNCc1ccc(-c2noc(-c3cn4cc(C(F)(F)F)cc(Cl)c4n3)n2)c(Cl)c1` [Example 130, N-[(3-chloro-4-{5-[8-chloro-6-(trifluoromethyl)imidazo[1,2-a]pyridin-2-yl]-1,2,4-oxadiazol-3-yl}phenyl)methyl]-beta-alanine], the EC50 in test [1] was 100 to 500 nM; in test [2] (read-out: Assay 3b EC50) it was 500 to 1000 nM; in test [3], at most 100 nM.
In the case of `O=C(O)CCNCc1ccc(-c2noc(-c3cn4cc(C(F)(F)F)cc(Br)c4n3)n2)c(Cl)c1` [Example 131, N-[(4-{5-[8-bromo-6-(trifluoromethyl)imidazo[1,2-a]pyridin-2-yl]-1,2,4-oxadiazol-3-yl}-3-chlorophenyl)methyl]-beta-alanine], the EC50 in test [1] was 100 to 500 nM; in test [2] (read-out: Assay 3b EC50), 1000 to 5000 nM; in test [3], at most 100 nM.
On the same counts, the results for `O=C(O)C1CN(Cc2ccc(-c3noc(-c4cn5cc(C(F)(F)F)cc(Br)c5n4)n3)c(Cl)c2)C1` [Example 132, 1-[(4-{5-[8-bromo-6-(trifluoromethyl)imidazo[1,2-a]pyridin-2-yl]-1,2,4-oxadiazol-3-yl}-3-chlorophenyl)methyl]azetidine-3-carboxylic acid] are 100 to 500 nM, 1000 to 5000 nM and at most 100 nM.
`O=C(O)CC(O)c1ccc(-c2noc(-c3cn4cc(C(F)(F)F)cc(Cl)c4n3)n2)c(Cl)c1` (stereo not drawn) [Example 139, 3-(3-chloro-4-{5-[8-chloro-6-(trifluoromethyl)imidazo[1,2-a]pyridin-2-yl]-1,2,4-oxadiazol-3-yl}phenyl)-3-hydroxypropanoic acid]: the EC50 in test [1] is at most 100 nM; in test [2] (footnote 1: Relative EC50 was measured, read-out: Assay 3b Relative EC50), 100 to 500 nM; in test [3], at most 100 nM.
For the compound `OC[C@@H](O)COc1cc(Cl)c(-c2noc(-c3cn4cc(C(F)(F)F)cc(Cl)c4n3)n2)cc1Cl` [Example 289, (2R)-3-[(2,5-dichloro-4-{5-[8-chloro-6-(trifluoromethyl)imidazo[1,2-a]pyridin-2-yl]-1,2,4-oxadiazol-3-yl}phenyl)oxy]propane-1,2-diol], the EC50 in test [1], in test [4], in test [5] and in test [3] was at most 100 nM in each case.
Turning to `CC(O)COc1cc(Cl)c(-c2noc(-c3cn4cc(C(F)(F)F)cc(Cl)c4n3)n2)cc1Cl` (stereo not drawn) [Example 292, 1-[(2,5-dichloro-4-{5-[8-chloro-6-(trifluoromethyl)imidazo[1,2-a]pyridin-2-yl]-1,2,4-oxadiazol-3-yl}phenyl)oxy]propan-2-ol], the EC50 was at most 100 nM in test [1], at most 100 nM in test [4], 100 to 500 nM in test [5] and at most 100 nM in test [3].
In the case of `O=C(O)CCc1cc(Cl)c(-c2nc(-c3cn4cc(C(F)(F)F)cc(Cl)c4n3)no2)cc1Cl` [Example 315, 3-(2,5-dichloro-4-{3-[8-chloro-6-(trifluoromethyl)imidazo[1,2-a]pyridin-2-yl]-1,2,4-oxadiazol-5-yl}phenyl)propanoic acid], the EC50 is at most 100 nM in test [1], at most 100 nM in test [4], 100 to 500 nM in test [5] and at most 100 nM in test [3].
